# The source made the active and inactive calls.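 The calls were made as follows: active = clearly stronger inhibition of phosphomevalonate kinase than of the coupling enzymes alone in a parallel counterscreen; inactive = the rest.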
# Biological target: phosphomevalonate kinase (Streptococcus pneumoniae D39)
# Test: S. pneumoniae PMK inhibitor potency, dose response, biochemical, mevalonate pathway, coupling enzyme counter-screen (AID 549)
# Conditions: PK/LDH coupled NADH absorbance 340 nm
row,Compound,outcome
1,COc1ccc(Cn2nnnc2C(c2ccccn2)N2CCN(c3cc(Cl)ccc3C)CC2)cc1 (stereo unspecified),inactive
2,CS(=O)(=O)N1CCN(C(=O)CCC2CCCC2)CC1,inactive
3,CC(C)CN(CC(C)C)S(=O)(=O)N1CCC(C(=O)NC2CCCCCCC2)CC1,inactive
4,CCOCCCN1C(=O)CN(C2CCCCC2)C(=O)C1c1ccc(OCC)c(OC)c1 (stereo unspecified),inactive
5,Cc1sc2ncnc(NCC(c3ccco3)N(C)C)c2c1C (stereo unspecified),inactive
6,CCn1c(SCC(=O)c2[nH]c(C)c(C(C)=O)c2C)nnc1-c1cccs1,inactive
7,CCOC(=O)c1ccc(NC(=O)CSc2nc(C)cc(=O)[nH]2)cc1,inactive
8,Cc1nnc(SCC(=O)Nc2ncc(Cc3ccc(F)cc3)s2)n1N,inactive
9,CCOC(=O)CCn1c2nc(C)cc(C)c2c(=O)n1-c1ccccc1,inactive
10,COc1cc2nc(C3CCC3)n(NC(=O)C3CCCC(OC)C3)c(=O)c2cc1OC (stereo unspecified),inactive
11,COc1ccc(S(=O)(=O)N2CCN(C3CCCCCCC3)CC2)cc1,inactive
12,COCCCNC(=O)C1C2C=CC3(CN(Cc4ccc(C)cc4)C(=O)C13)O2 (stereo unspecified),inactive
13,CCC(C)(C)NC(=O)C(c1ccccc1F)N(Cc1ccco1)C(=O)c1csnn1 (stereo unspecified),inactive
14,O=C(Nc1ccc(F)cc1)N(CCCN1CCOCC1)Cc1cc2cc3c(cc2[nH]c1=O)OCO3,inactive
15,c1ccc(CCn2nnnc2C(c2cccs2)N2CCOCC2)cc1 (stereo unspecified),inactive
16,Cc1nn(Cc2ccccc2)c2c1C(c1ccncc1)C(C#N)=C(N)O2 (stereo unspecified),inactive
17,CCOc1ccccc1-n1c(SCC(=O)Nc2ccc(CC)cc2)nc2n[nH]c(C)c2c1=N,inactive
18,Cc1cc(C)n2nc(SCC(=O)NCc3ccco3)nc2n1,inactive
19,Cc1cc2c(C(F)(F)F)cc(=O)oc2c2c1NCCC2,inactive
20,O=C(CSc1cc(Cl)ccc1Cl)NCC1CCCO1 (stereo unspecified),inactive
21,COCC(C)n1c(COc2ccccc2F)nnc1SCc1c(C)noc1C (stereo unspecified),inactive
22,COc1ccc(CN2C(=O)c3ccccc3C2C(=O)NC2CCCC2)c(OC)c1 (stereo unspecified),inactive

row,Compound,outcome
1,COc1ccc(CNC(=O)C2CCN(S(=O)(=O)c3cccc4cccnc34)CC2)cc1,inactive
2,Cc1c2cnn(CC(=O)N3CCC4(CC3)OCCO4)c(=O)c2c(C)n1Cc1ccc(F)cc1,inactive
3,O=C(c1cccnc1)N1CCc2ccccc2C1,inactive
4,O=c1c[n+]([O-])c2ccccc2n1OCc1c(F)cccc1F,inactive
5,O=C(Nc1c(-c2ccccc2)nc2sccn12)c1ccccc1,inactive
6,Cc1ccc(-n2c(CSc3nc(C)cc(C)n3)nnc2SCC(=O)NCc2ccco2)cc1,inactive
7,N#Cc1cc2ccccc2nc1SCc1cccnc1,inactive
8,O=C(O)C1=C(C(=O)Nc2ccc(F)c(Cl)c2)CCCC1,inactive
9,COc1cccc(OC)c1OCC(O)CN1CCN(c2ccccc2)CC1 (stereo unspecified),inactive
10,CN1C(=O)OC2(C)CCc3ccccc3C12C (stereo unspecified),inactive
11,CN1CC(=O)NC1=NC(=O)c1ccc(Cl)c(S(=O)(=O)N2CCCCCC2)c1,inactive
12,CN(C(=O)c1cnccn1)c1nnc(-c2cccnc2)s1,inactive
13,Cn1cnnc1SCC(=O)n1c2ccccc2c2ccccc21,inactive
14,Cn1c(SCC(=O)N2CCOCC2)nnc1-c1ccc(NC(=O)c2ccccc2F)cc1,inactive
15,CC(OC(=O)c1cccs1)C(=O)NCC1CCCO1 (stereo unspecified),inactive
16,Cc1ccc(NC(=O)CSc2nnc(Cn3c(=O)sc4ccccc43)n2C)cc1Cl,inactive
17,CCC(C)(C)n1nnnc1C(c1cccnc1)N1CCCc2ccccc21 (stereo unspecified),inactive
18,CCC1Oc2ccc(C)cc2N(CC(=O)NCCN2CCCCCC2)C1=O (stereo unspecified),inactive
19,CCn1c(SCC(=O)Nc2ccc(Cl)cc2)nnc1C1CC1,inactive
20,O=C(CCc1nc2ccccc2c(=O)[nH]1)OCC(=O)N1CCN(S(=O)(=O)c2ccccc2)CC1,inactive
21,COc1cc2cc(CN(CCCO)S(=O)(=O)c3ccccc3Cl)c(=O)[nH]c2cc1OC,inactive
22,COc1ccc(-n2c(SCc3nnc(-c4ccccc4)o3)nnc2-c2ccccc2)cc1,inactive

row,Compound,outcome
1,COC(=O)[C@@H](NC(=O)N1CCN(c2cccc(C(F)(F)F)c2)CC1)C(C)C,inactive
2,Cc1cccc2cc(CN(CCN3CCCC3)C(=O)NC3CCCCC3)c(=O)[nH]c12,inactive
3,COc1ccccc1CNC(=O)C1CCN(S(=O)(=O)N2CC(C)CC(C)C2)CC1 (stereo unspecified),inactive
4,O=C(NCCCNC(=O)c1ccccn1)c1ccccn1,inactive
5,CCOc1ccc(Nc2nc(Cc3nnc(SCC(N)=O)o3)cs2)cc1,inactive
6,c1ccc(NC(=NCc2ccco2)c2ccccc2)cc1,inactive
7,COc1ccc2c(c1)c(C(=O)CNc1nc(C)cs1)c(C)n2C,inactive
8,COc1ccc(OC)c(CNC(=O)C2CCCN(c3nc4ccccc4o3)C2)c1 (stereo unspecified),inactive
9,CCOC(=O)C1CCCN(C(=O)C2CCCN(S(C)(=O)=O)C2)C1 (stereo unspecified),inactive
10,CCOC(=O)C1=C(C)Nc2ccccc2N=C1NC(=O)CCCN1C(=O)c2ccccc2C1=O,inactive
11,CCOC(=O)N1CCN(C(=O)Cn2nc(-c3ccc(Cl)cc3)ccc2=O)CC1,inactive
12,CCCn1cnc2c(cnn2-c2ccc(F)cc2)c1=O,inactive
13,CCOC(=O)N1CCN(C(=O)C2CCN(S(=O)(=O)N3CCCC3)CC2)CC1,inactive
14,COc1ccc(S(=O)(=O)Nc2nnc(C)s2)cc1,inactive
15,CCOc1ccc(S(=O)(=O)NCCCN2CCOCC2)c2ccccc12,inactive
16,Cn1c(=O)c2c(nc(N3CCOCC3)n2C)n(C)c1=O,inactive
17,Cn1c2ccccc2c2cnn(CC(=O)N3CCN(c4ncccn4)CC3)c(=O)c21,inactive
18,COCc1cc(=O)[nH]c(Nc2nc(C)c3ccc(C)cc3n2)n1,inactive
19,Clc1ccc(C(c2nnnn2C2CCCC2)N2CCN(Cc3ccncc3)CC2)cc1 (stereo unspecified),inactive
20,CC(C)(C)NC(=O)CSc1nnc(-c2ccccn2)n1-c1ccccc1,inactive
21,O=C(c1cc(-c2ccco2)on1)N1CCCc2ccccc21,inactive
22,CS(=O)(=O)N1CCCC(C(=O)N2CCOCC2)C1 (stereo unspecified),inactive

row,Compound,outcome
1,COc1ccc(-c2coc3c(CN4CCCCC4)c(O)c(CN4CCCCC4)c(O)c3c2=O)cc1,inactive
2,Cc1oc2c(O)c(O)ccc2c(=O)c1-c1ccccc1,inactive
3,OCCNCC1(O)C2CC3CC(C2)CC1C3 (stereo unspecified),inactive
4,COc1ccc(C2(C)NC(=O)N(Cc3cc(Cl)cc4c3OCOC4)C2=O)cc1OC (stereo unspecified),inactive
5,Cc1csc(C(C#N)C(=O)c2ccc(S(=O)(=O)N3CCCC3)cc2)n1 (stereo unspecified),inactive
6,Cc1nc2ccc3nc(NC(=O)c4ccco4)sc3c2s1,inactive
7,Cn1c(=O)c2c(-c3ccccc3)n(C3CCCCC3)cc2n(C)c1=O,inactive
8,CC(C)(C)c1ccccc1OCCCCCNCCO,inactive
9,Cc1cccc(-n2nc3c(c2NC(=O)c2ccco2)CSC3)c1C,inactive
10,O=C(Nc1ccc(-c2noc(COc3ccccc3Cl)n2)cc1)c1ccco1,inactive
11,COc1ccc(C(=O)Nc2ccccc2C(=O)NC(C(=O)NCc2ccco2)C(C)C)cc1 (stereo unspecified),inactive
12,Cc1ccccc1OCCCCc1c(C)n[nH]c1C,inactive
13,O=C(CSc1nc(-c2ccccc2)cs1)N1CCN(C(=O)c2ccco2)CC1,inactive
14,O=C(CSCc1cccc(F)c1)N1CCN(c2ccccc2)CC1,inactive
15,Cc1c2c(nc3c(C(=O)NC4CCCCC4C)cnn13)CCCC2 (stereo unspecified),inactive
16,COc1ccc(NC2CC(=O)NC2=O)cc1 (stereo unspecified),inactive
17,CCOc1ccc(C2c3c(oc4cc(C)c(C)cc4c3=O)C(=O)N2CCCN(C)C)cc1OC (stereo unspecified),inactive
18,N#Cc1c(N)sc(=S)c2c1CCN(Cc1ccccc1)C2,inactive
19,CC(C)(C)NS(=O)(=O)c1ccc(NS(=O)(=O)c2ccc(F)cc2)cc1,inactive
20,Cc1nc2ccccc2n2c(O)c(CC(=O)O)cc12,inactive
21,Cc1ccc(-c2noc(CCC(=O)NCCN3CCc4ccccc4C3)n2)cc1,inactive
22,CCn1c2ccccc2c2cc(CN3CCN(C(=O)c4ccco4)CC3)ccc21,inactive

row,Compound,outcome
1,COc1ccc(NC(=O)c2ccco2)cc1NC(=O)c1ccc(C)cc1,inactive
2,COc1ccc(Br)cc1CNC(=O)C1CCN(S(=O)(=O)N2CCCC2)CC1,inactive
3,COc1ccc2c(c1OC)CN(C)CCc1cc3c(cc1C(O)C2)OCO3 (stereo unspecified),inactive
4,Cc1ccc(-c2nnn(CC(=O)N(CC(=O)NCC3CCCO3)c3ccc(F)c(Cl)c3)n2)o1 (stereo unspecified),inactive
5,CCOC(=O)C1=C(C)NC(=O)NC1/C(C)=C/c1ccccc1 (stereo unspecified),inactive
6,COC(=O)c1ccccc1S(=O)(=O)N(Cc1cc2ccc(OC)cc2[nH]c1=O)CC1CCCO1 (stereo unspecified),inactive
7,N=c1n(CCN2CCOCC2)c2ccccc2n1CC(=O)c1ccc(Cl)c(Cl)c1,inactive
8,COc1ccccc1NC(=O)C1=C(C)NC2=C(C(=O)CCC2)C1c1ccc(C)o1 (stereo unspecified),inactive
9,Cc1cc(=O)n2[nH]c(-c3ccccc3Cl)cc2n1,inactive
10,CCOC(=O)c1[nH]nc(C(=O)c2ccc(Br)cc2)c1O,inactive
11,CCCN(C(=O)c1ccccc1N)c1c(C)n(C)n(-c2ccccc2)c1=O,inactive
12,O=C(CNCC1CCCO1)Nc1ccccc1N1CCOCC1 (stereo unspecified),inactive
13,COc1ccc(C(=O)Nc2cccc3c2C(=O)NC3=O)cc1S(=O)(=O)N1CCOCC1,inactive
14,COCCNC(=O)C(c1ccc(C)o1)N(Cc1ccc(OC)cc1)C(=O)Cn1nnc2ccccc21 (stereo unspecified),inactive
15,O=C(CNC(=O)c1cccs1)NCCN1CCN(c2ccccc2F)CC1,inactive
16,COc1ccc(C(=O)Nc2ccncc2)cc1OC,inactive
17,c1ccc2sc(SCc3ccc(-c4nnco4)cc3)nc2c1,inactive
18,CON(C)c1nc(OCCNC(=O)OCc2ccc(Cl)cc2Cl)nc(N(C)C)n1,inactive
